Values of other authors as cited in PMC11910062 (Drug Design, Development and Therapy, 2025).

Key:
[1] = CLEAR Outcomes study
[2] = ref submission materials for new drug application

Cmax ([2]; 180 mg dose of Nexletol): 19950 ng/mL
Structure (SMILES): CC(C)(CCCCCC(O)CCCCCC(C)(C)C(=O)O)C(=O)O [Nexletol, bempedoic acid]
4 major adverse cardiovascular events (4-MACE) reduction compared with placebo group [1]: −13%
LDL-C reduction ([2]; 180 mg of Nexletol): 26%
